The values below come from publication PMC7570662, “In Vivo Pharmacokinetic Analysis Utilizing Non-Targeted and Targeted Mass Spectrometry and In Vitro Assay against Transient Receptor Potential Channels of Maobushisaishinto and Its Constituent Asiasari Radix” (Molecules, 2020).

One data set addresses T1, human TRPV1 (Homo sapiens, UniProt Q8NER1).
T1 construct: Each full-length human TRPA1, TRPV1, TRPV4, and TRPM8 coding regions were introduced into a pcDNA4/TO vector; expressed in transfected cells; host or cells: T-REx-293 cells (tetracycline-induced, pcDNA4/TO vector)
Kind of data set: Ca2+ influx assay in TRPV1-expressing T-REx-293 cells. It is filed as cell-based. Particulars: 10 µmol/L test compound, relative to 2 µmol/L capsaicin; for activation at 10 µM: T-REx-293, read-out: % of Activation Compared to Positive Control against Each Subfamily of TRP Channel TRPV1. How it is done:
(§1) Each full-length human TRPA1, TRPV1, TRPV4, and TRPM8 coding regions were introduced into a pcDNA4/TO vector (Thermo Fisher Scientific, Waltham, MA, USA) and transfected into T-REx-293 cells (Thermo Fisher Scientific) to obtain stable cell lines expressing human TRPA1, TRPV1, TRPV4, and TRPM8. Cells were cultured in DMEM with 10% FBS, 4 mmol/L L-glutamine, and penicillin/streptomycin.
(§2) Cells were suspended in medium with 1 µg/mL tetracycline and seeded in poly-D-lysine coated 96-well plate at 2.5 × 10^4 cells/well. After overnight culture, the cells were used for Ca^2+ influx assay.
(§3) The Ca^2+ influx assay was performed using a FLIPR Calcium 5 Assay Kit (Molecular Devices, Sunnyvale, CA, USA) according to previously reported methods with minor modifications. In brief, cells were incubated with 80 µL Ca^2+-chelating dye dissolved in assay buffer at pH 7.4 (Hanks’ Balanced Salt Solution containing 20 mmol/L of N-2-hydroxyethylpiperazine-N’-2-ethanesulfonic acid) at room temperature for 30 min. The plates were assayed using a FlexStation 3 Microplate Reader (Molecular Devices). The fluorescence intensity was traced entirely for 80 s. The baseline of fluorescence was measured for 20 s before adding 20 µL of test compound (final concentration, 10 µmol/L). The response was expressed as percentage activation using the relative fluorescence units (RFU) (% activation = 100 × ((RFUmax − RFUbaseline)/RFUbaseline) − 100). Furthermore, the activities of each test compound against several subfamilies of TRP channels were represented as the relative enhancement of Ca^2+ influx of each positive control, indicated as follows: 20 µmol/L of allyl isothiocyanate (an agonist of TRPA1), 2 µmol/L of capsaicin (an agonist of TRPV1), 4 µmol/L of GSK1016790A (an agonist of TRPV4), and 20 µmol/L of icilin (an agonist of TRPM8). The dose–response curve was fitted to the sigmoidal dose-response equation (top, the max response of each compound), and EC50 values were calculated using GraphPad Prism 7 software (GraphPad, San Diego, CA, USA).

A short description of data set [1]: Qualitative non-targeted LC-HRMS analysis of AR compounds in rat plasma after oral AR or MBST. In kind it is in vivo. To be noted: for Detection in plasma of rats treated with AR or MBST (non-targeted analysis): po. How it is done: Extract powders of AR or MBST were suspended in distilled water and orally administered to rats having fasted for approximately 16 h. The dose of AR was set at 2 g/kg, and the MBST doses were set at 1 and 2 g/kg. 1 g/kg MBST contained 578 µg/kg, 147 µg/kg, 226 µg/kg, 426 µg/kg asarinin, sesamin, methyl kakuol, and amide A, respectively. The doses were chosen based on a previous pharmacological study of MBST using rats.
According to previous pharmacokinetic studies of herbal medicines, many of the components were quickly absorbed into the bloodstream, thereby providing the rationale for a sampling time at 1 h. Blood was centrifuged at 1200× g at 4 °C for 30 min to obtain plasma; then, the sample was stored at −80 °C until LC-HRMS analysis. […]
The plasma samples were collected at 1 h after MBST administration in case of both the qualitative (non-targeted) analysis and the quantitative (targeted) analysis.
The plasma samples of AR- or MBST-treated rats collected at 1 h post-administration were pretreated by deproteinization using methanol before the LC-HRMS analysis as follows: 100 µL plasma sample was mixed with 500 µL methanol, and the resultant solution was vortexed for 2 min. The mixture was centrifuged at 7000× g at 4 °C for 5 min. The supernatant was dried using a centrifugal evaporator, and the dried residue was dissolved in 100 μL of the initial LC mobile phase which is composed of 0.1 vol% formic acid in water/acetonitrile (99.9/0.1, v/v) and recentrifuged at 7000× g at 4 °C for 5 min. Finally, a 5 μL aliquot of the supernatant was injected into the LC-HRMS system comprised of an Acquity Ultra-Performance Liquid Chromatography System (Waters, Milford, MA, USA) and a Xevo G2-XS quadrupole time-of-flight MS (Waters) and was chromatographically separated using an ACQUITY UPLC HSS T3 column (2.1 × 150 mm I.D., 1.8-μm particle size; Waters) with an ACQUITY UPLC HSS T3 VanGuard Pre-column (2.1 mm × 5 mm I.D., 1.8-μm particle size; Waters) at 40 °C. The mobile phase consisted of solution A (0.1% formic acid, v/v) and solution B (acetonitrile) with a gradient of solution B (0.1%, 0 min; 99%, 24 min; v/v) at a flow rate of 0.4 mL/min. The analysis of the mass spectrometer fit with an electrospray ionization probe with sensitivity mode was performed for both the positive and negative ion mode. The resolution of the mass spectrometer was set at >20,000. For MS^E experiments, two acquisition functions with different collision energies were created: a low-energy function with a collision energy of 6 eV and a high-energy function with collision energy ranging from 15 to 40 eV.

The next data set addresses T2, human TRPV4 (Homo sapiens, UniProt Q9HBA0).
T2 construct: Each full-length human TRPA1, TRPV1, TRPV4, and TRPM8 coding regions were introduced into a pcDNA4/TO vector; expressed in transfected cells; host or cells: T-REx-293 cells (tetracycline-induced, pcDNA4/TO vector)
In words: Ca2+ influx assay in TRPV4-expressing T-REx-293 cells. In kind it is cell-based. To be noted: 10 µmol/L test compound, relative to 4 µmol/L GSK1016790A; for activation at 10 µM: T-REx-293, read-out: % of Activation Compared to Positive Control against Each Subfamily of TRP Channel TRPV4. The procedure:
as §1, §2, §3

Molecules are shown by their SMILES.

T2 sequence (Q9HBA0 whole entry): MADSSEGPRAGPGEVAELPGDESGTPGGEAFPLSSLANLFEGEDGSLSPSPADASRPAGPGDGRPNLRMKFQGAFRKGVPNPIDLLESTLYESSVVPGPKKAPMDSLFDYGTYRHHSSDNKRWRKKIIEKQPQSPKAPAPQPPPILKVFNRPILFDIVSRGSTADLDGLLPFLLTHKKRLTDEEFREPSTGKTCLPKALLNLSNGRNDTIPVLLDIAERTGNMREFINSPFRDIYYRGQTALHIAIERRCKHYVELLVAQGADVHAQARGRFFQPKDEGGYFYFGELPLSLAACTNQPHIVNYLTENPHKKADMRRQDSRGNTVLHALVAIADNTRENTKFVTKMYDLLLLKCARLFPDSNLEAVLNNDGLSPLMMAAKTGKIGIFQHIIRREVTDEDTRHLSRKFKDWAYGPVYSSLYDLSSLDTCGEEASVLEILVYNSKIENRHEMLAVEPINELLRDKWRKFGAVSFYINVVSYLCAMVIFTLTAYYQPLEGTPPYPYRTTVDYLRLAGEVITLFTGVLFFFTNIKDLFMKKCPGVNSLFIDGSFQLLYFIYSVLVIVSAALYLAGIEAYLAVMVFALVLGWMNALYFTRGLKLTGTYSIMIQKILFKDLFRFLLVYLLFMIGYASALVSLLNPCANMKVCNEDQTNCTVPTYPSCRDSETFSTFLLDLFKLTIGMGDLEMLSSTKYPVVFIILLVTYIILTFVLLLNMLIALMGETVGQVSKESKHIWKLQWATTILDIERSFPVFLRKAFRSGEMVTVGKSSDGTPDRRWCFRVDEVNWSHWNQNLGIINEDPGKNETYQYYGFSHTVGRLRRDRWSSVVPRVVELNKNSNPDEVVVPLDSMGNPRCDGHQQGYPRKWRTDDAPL
T1 sequence (Q8NER1 whole entry): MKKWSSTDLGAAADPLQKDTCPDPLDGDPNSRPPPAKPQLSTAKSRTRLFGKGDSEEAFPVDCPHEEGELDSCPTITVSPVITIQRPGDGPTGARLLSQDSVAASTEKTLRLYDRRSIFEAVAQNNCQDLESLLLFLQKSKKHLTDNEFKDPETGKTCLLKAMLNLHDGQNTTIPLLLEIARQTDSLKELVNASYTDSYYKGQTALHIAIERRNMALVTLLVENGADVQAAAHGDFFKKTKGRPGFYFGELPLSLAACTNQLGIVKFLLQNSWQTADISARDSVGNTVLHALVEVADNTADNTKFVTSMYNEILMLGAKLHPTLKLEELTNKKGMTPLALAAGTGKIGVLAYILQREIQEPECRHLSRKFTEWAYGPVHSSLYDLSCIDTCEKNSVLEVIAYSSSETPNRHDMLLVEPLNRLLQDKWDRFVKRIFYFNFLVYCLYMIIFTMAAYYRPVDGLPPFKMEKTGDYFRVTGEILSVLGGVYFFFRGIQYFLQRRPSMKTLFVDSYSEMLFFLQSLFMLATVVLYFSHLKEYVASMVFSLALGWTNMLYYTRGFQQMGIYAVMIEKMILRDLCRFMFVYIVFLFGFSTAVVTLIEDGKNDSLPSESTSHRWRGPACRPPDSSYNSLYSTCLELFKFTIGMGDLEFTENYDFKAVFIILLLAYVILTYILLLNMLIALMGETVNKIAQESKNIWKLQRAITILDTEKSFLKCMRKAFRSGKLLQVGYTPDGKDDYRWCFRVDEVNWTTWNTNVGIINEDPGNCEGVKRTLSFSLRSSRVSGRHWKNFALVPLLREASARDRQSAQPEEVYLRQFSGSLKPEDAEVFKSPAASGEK

With `C/C=C/C=C\CC/C=C/C=C/C(=O)NCC(C)C` [Amide A, (2E,4E,8Z,10E)-N-isobutyl-2,4,8,10-dodecatetraenamide], the values for the activation at 10 µM at human TRPV1 and on human TRPV4 were 0.7% and 2.7%, respectively. Besides, the “Metabolites found in AR- or MBST-treated plasma” value in data set [1] (rat, in vivo) is “metabolized into an alkylated and a water adducted + alkylated form”.

Regarding `c1cc2c(cc1[C@H]1OC[C@H]3[C@@H]1CO[C@H]3c1ccc3c(c1)OCO3)OCO2` [Asarinin, (−)-Asarinin], the activation at 10 µM was -0.4% at human TRPV1 and -0.1% at human TRPV4. Moreover, the “Detection in plasma of rats treated with AR or MBST (non-targeted analysis)” value in data set [1] (rat, in vivo) was “not detected”.

On to `CCC(=O)c1cc2c(cc1OC)OCO2` [Methyl kakuol], for which the “% of Activation Compared to Positive Control against Each Subfamily of TRP Channel TRPV1” value at human TRPV1 is 0.1%. The “AR-Treated Rat Plasma (detection of compound)” value in data set [1] (rat plasma 1 h after oral 2 g/kg AR, n = 1, LC-HRMS) is “+ (The number of plus signs represents the sample number in which the compound was detected among AR-treated rat plasma (n = 1) and MBST-treated rat plasma (n = 3))”. Besides, the “MBST-Treated Rat Plasma (detection of compound)” value in data set [1] (rat plasma 1 h after oral 2 g/kg MBST, n = 3, LC-HRMS) is “+ + + (The number of plus signs represents the sample number in which the compound was detected among AR-treated rat plasma (n = 1) and MBST-treated rat plasma (n = 3))”. In addition, in data set [1] (rat plasma, non-targeted LC-HRMS, phase I and II metabolite exploration), the “Metabolites found in AR- or MBST-treated plasma” value was “metabolized into a sulfate conjugate and a dehydrogenated + sulfate conjugate form”. The “% of Activation Compared to Positive Control against Each Subfamily of TRP Channel TRPV4” value at human TRPV4 was determined as 0.9%.

As to `c1cc2c(cc1[C@H]1OC[C@H]3[C@@H]1CO[C@@H]3c1ccc3c(c1)OCO3)OCO2` [Sesamin], the activation at 10 µM at human TRPV1 and on human TRPV4 was -0.1% each time. The “Detection in plasma of rats treated with AR or MBST (non-targeted analysis)” value in data set [1] (rat, in vivo) is listed as “not detected”.
